Measured values: ChEMBL document CHEMBL5465560, “Selectivity Literature for EUbOPEN Chemogenomic Library” (2024)

How the values were obtained:
[1] = target: T1, Cyclin-dependent kinase 11A (Homo sapiens) (UniProt Q9UQ88); test: Selectivity interaction (KinomeScan (DiscoverX)) EUB0001049a CDK11A; conditions: at 1 µM
T1 sequence (whole entry): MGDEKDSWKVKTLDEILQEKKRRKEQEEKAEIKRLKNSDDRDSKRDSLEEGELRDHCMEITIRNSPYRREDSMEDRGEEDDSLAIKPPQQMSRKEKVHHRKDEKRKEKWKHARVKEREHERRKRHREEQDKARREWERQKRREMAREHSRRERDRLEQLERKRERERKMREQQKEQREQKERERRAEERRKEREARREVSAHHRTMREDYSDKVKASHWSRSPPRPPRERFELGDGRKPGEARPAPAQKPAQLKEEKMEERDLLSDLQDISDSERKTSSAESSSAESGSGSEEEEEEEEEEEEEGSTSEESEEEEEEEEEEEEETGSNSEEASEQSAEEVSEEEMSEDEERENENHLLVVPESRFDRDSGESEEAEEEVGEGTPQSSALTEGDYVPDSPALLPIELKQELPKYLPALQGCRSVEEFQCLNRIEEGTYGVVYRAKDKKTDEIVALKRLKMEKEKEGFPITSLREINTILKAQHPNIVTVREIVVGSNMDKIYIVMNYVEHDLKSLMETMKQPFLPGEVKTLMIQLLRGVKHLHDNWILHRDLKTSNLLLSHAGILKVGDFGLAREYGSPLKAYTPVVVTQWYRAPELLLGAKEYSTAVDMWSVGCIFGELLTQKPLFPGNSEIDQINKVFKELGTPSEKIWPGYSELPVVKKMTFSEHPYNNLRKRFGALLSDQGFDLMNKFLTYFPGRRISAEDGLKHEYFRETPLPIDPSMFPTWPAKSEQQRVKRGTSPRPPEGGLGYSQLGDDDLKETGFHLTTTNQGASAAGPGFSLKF

Peregrin (Homo sapiens) = target: T2, Peregrin (Homo sapiens) (UniProt P55201); test: Selectivity interaction (Human bromodomain panel (DSF assay)) EUB0000233b BRPF1
T2 sequence (whole entry): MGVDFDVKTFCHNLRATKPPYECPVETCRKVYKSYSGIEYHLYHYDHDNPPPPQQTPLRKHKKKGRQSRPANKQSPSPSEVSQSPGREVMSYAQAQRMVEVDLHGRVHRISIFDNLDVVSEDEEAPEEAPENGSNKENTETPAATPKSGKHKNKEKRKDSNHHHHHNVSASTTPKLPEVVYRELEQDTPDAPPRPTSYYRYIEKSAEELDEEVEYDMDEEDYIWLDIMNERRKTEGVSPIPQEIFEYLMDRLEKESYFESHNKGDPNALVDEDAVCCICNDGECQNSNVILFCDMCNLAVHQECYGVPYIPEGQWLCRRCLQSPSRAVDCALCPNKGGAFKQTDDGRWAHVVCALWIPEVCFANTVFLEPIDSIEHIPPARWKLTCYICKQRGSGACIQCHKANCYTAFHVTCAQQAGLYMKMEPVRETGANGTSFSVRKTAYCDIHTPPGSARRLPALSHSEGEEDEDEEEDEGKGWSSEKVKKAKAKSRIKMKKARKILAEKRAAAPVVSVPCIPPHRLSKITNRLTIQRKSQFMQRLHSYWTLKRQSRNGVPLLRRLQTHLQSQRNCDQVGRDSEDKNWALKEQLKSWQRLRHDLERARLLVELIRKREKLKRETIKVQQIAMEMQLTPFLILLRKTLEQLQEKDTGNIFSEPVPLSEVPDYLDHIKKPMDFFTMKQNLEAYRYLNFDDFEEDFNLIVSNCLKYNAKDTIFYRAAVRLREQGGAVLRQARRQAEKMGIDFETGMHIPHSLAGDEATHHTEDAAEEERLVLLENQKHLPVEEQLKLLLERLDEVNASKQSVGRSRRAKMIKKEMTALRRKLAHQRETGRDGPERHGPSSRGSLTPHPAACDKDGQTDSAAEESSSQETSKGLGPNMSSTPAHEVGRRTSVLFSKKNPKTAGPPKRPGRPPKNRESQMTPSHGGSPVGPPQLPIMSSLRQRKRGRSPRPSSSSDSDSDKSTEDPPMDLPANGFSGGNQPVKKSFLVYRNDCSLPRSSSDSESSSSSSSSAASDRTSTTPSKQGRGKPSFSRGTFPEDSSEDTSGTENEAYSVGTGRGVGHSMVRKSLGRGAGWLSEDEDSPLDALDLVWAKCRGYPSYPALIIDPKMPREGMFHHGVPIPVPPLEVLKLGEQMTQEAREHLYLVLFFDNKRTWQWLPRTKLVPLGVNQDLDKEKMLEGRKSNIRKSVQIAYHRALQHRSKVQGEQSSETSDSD

[2] = target: Tyrosine-protein kinase ABL2 (Homo sapiens, UniProt P42684); conditions: at 10 µM
Tyrosine-protein kinase ABL2, sequence (P42684 whole entry): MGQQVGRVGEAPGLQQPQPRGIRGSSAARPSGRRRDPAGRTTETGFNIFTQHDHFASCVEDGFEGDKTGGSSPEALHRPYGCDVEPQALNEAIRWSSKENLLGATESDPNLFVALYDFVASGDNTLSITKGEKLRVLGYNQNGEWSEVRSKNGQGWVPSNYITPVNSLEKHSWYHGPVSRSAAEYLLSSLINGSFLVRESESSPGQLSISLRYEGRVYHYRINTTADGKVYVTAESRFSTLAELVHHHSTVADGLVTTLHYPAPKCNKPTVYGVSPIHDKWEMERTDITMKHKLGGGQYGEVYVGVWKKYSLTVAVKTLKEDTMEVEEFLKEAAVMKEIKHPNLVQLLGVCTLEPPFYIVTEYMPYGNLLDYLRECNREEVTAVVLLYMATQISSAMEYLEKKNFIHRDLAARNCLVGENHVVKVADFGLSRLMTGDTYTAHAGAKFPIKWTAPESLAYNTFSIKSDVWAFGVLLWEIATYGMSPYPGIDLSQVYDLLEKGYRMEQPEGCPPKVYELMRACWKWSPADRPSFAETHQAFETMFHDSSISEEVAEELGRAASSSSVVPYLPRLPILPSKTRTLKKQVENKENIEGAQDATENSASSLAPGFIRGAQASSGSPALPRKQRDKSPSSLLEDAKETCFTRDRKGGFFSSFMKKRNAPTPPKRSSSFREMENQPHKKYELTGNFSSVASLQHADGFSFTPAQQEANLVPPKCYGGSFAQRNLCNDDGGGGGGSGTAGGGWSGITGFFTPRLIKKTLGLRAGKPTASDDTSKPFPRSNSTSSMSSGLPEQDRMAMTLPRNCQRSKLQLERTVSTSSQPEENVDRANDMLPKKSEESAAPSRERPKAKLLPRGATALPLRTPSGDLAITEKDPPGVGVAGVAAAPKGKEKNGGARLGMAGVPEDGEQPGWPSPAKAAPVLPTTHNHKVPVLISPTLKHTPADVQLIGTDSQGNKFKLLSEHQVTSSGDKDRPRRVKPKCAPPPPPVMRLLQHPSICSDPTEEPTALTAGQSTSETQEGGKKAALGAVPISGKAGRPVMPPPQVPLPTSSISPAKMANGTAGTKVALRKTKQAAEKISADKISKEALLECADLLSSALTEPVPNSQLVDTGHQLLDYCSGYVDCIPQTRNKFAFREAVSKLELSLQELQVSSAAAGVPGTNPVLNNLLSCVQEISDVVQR

[3] = target: Tyrosine-protein kinase HCK (Homo sapiens) (UniProt P08631); conditions: at 10 µM
Tyrosine-protein kinase HCK (Homo sapiens), sequence (P08631 2-526 limits assumed): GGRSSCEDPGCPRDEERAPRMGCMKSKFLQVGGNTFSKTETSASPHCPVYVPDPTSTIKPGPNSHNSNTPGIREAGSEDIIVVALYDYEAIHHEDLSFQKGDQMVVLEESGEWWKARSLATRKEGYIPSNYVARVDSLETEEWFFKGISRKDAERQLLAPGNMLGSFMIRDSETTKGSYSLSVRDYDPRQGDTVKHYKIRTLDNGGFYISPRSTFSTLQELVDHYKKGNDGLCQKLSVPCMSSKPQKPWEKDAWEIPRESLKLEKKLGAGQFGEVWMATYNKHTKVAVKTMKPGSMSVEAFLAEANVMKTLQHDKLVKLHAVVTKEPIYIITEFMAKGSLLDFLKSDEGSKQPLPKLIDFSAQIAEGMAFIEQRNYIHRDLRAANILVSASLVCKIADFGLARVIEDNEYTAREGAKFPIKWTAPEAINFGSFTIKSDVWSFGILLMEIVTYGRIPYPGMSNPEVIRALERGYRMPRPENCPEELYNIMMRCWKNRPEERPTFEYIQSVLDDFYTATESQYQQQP

[4] = target: SWI/SNF-related matrix-associated actin-dependent regulator of chromatin subfamily A member 4 (Homo sapiens) (UniProt P51532); test: Selectivity interaction (Bromodomain panel (DSF asssay)) EUB0000270b SMARCA4
SWI/SNF-related matrix-associated actin-dependent regulator of chromatin subfamily A member 4 (Homo sapiens), sequence (P51532 whole entry): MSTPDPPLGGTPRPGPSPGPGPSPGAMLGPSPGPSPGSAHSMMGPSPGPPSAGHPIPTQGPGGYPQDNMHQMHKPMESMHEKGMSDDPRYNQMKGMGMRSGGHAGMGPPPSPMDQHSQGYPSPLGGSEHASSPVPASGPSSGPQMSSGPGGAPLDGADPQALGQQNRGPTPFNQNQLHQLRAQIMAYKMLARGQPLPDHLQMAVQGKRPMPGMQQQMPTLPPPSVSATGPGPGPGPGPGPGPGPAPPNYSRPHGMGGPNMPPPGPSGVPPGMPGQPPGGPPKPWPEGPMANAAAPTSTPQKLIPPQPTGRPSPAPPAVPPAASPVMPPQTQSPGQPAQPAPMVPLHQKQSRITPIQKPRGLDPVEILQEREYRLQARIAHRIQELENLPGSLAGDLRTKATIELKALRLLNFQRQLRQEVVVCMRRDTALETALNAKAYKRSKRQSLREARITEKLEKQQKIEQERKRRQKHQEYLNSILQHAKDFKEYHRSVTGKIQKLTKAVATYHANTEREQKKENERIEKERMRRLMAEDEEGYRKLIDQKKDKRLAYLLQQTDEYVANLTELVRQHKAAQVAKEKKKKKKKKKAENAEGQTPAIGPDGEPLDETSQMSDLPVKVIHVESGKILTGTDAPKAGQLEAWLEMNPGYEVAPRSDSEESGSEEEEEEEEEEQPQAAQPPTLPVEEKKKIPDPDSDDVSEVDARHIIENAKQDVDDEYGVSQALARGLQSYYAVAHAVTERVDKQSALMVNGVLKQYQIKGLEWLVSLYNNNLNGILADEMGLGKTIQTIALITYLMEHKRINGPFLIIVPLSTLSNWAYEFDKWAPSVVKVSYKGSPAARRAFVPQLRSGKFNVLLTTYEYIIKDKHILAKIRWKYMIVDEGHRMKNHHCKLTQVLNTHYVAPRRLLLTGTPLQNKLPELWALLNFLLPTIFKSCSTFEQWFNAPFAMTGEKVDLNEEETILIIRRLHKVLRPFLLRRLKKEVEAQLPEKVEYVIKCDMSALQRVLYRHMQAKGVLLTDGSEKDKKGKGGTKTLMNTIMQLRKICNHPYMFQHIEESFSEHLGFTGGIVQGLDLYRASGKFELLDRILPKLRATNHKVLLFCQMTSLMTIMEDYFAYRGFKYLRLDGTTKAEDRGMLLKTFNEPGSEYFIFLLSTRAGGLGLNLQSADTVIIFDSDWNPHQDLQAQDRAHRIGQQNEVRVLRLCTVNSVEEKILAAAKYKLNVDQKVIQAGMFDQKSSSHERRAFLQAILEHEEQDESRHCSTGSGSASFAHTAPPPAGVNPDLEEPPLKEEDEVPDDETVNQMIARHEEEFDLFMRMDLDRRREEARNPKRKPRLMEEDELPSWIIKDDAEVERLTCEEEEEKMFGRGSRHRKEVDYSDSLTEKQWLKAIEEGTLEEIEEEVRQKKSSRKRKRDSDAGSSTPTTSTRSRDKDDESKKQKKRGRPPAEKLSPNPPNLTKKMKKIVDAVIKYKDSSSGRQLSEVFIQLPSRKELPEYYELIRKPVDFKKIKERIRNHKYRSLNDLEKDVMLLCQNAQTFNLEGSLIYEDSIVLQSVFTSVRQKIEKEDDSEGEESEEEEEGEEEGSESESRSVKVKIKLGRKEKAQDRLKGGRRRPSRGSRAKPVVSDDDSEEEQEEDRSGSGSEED

[5] = target: Serine/threonine-protein kinase N1 (Homo sapiens, UniProt Q16512); test: Selectivity interaction (ActivX KiNativ screen (kinase selectivity in THP-1 cell lysates)) EUB0000639a PKN1; format: subcellular; conditions: lysate, at 5 µM
[6] = target: TGF-beta receptor type-2 (Homo sapiens) (UniProt P37173); test: Selectivity interaction (KinomeScan (DiscoverX)) EUB0000045b TGFBR2
TGF-beta receptor type-2 (Homo sapiens), sequence (P37173 whole entry): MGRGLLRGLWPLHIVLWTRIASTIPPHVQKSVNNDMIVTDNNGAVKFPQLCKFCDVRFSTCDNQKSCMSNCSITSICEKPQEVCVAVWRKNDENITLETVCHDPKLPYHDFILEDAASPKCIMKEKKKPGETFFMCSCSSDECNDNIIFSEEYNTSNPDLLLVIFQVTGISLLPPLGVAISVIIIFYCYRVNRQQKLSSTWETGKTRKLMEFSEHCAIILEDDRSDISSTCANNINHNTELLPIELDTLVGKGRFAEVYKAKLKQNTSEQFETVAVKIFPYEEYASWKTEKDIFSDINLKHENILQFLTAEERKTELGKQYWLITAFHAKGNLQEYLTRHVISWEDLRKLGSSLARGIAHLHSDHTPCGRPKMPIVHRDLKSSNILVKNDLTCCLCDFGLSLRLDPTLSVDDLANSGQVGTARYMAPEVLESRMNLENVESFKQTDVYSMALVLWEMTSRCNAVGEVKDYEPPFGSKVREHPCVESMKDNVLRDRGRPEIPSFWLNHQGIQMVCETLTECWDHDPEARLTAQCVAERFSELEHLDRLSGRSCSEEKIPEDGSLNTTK

[7] = target: Cyclin-dependent kinase 14 (Homo sapiens) (UniProt O94921); test: Selectivity interaction (KinomeScan (DiscoverX)) EUB0000618a CDK14; conditions: at 10 µM
Cyclin-dependent kinase 14 (Homo sapiens), sequence (O94921 whole entry): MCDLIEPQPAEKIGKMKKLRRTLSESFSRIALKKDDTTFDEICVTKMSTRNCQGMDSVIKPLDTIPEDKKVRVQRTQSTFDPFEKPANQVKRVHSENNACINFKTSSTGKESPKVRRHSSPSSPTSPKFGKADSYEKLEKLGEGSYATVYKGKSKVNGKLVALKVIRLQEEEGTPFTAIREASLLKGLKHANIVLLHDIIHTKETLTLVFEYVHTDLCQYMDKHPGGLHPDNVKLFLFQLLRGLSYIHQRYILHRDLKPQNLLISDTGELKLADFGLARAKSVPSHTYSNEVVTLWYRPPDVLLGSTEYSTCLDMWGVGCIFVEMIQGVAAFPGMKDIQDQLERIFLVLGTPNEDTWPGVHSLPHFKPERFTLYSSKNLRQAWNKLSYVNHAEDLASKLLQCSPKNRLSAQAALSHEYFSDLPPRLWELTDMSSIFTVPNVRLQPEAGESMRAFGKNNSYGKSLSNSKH

[8] = target: Tyrosine-protein kinase CSK (Homo sapiens) (UniProt P41240); conditions: at 10 µM
Tyrosine-protein kinase CSK (Homo sapiens), sequence (P41240 2-450 limits assumed): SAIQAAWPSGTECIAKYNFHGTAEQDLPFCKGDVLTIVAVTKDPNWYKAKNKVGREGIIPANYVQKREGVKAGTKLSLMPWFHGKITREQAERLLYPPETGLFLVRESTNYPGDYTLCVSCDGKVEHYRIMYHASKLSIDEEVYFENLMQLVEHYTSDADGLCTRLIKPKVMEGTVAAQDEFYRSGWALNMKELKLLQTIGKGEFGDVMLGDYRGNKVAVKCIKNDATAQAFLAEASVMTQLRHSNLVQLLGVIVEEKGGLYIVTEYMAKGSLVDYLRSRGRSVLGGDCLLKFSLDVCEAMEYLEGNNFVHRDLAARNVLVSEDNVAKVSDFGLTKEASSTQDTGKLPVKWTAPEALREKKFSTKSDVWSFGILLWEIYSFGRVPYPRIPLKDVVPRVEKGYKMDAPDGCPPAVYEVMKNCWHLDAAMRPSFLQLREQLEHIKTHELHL

[9] = target: 5'-AMP-activated protein kinase catalytic subunit alpha-1 (Homo sapiens, UniProt Q13131); test: Selectivity interaction (Upstate Kinase Profiler service (Millipore)) EUB0000056c PRKAA1; conditions: at 1 µM
[10] = target: Serine/threonine-protein kinase 10 (Homo sapiens) (UniProt O94804); test: Selectivity interaction (KinomeScan (DiscoverX)) EUB0000655a STK10; conditions: at 10 µM

COc1cc(Nc2nc(C)cc(-c3cnn4nc(OC)ccc34)n2)cc(C(F)(F)F)c1 was tested, and the % of control [1] was 83%.
With CN(C)CCCOc1ccc(-c2cc(NCCCn3cccn3)nc(S(C)(=O)=O)n2)cc1 the dTM (Peregrin (Homo sapiens)) was under 2 K.
CCN(CC)CCCCNc1ncc2cc(-c3cc(OC)cc(OC)c3)c(NC(=O)NC(C)(C)C)nc2n1 gave a % of control [2] of 100% and a % of control [3] of 100%.
For Cc1cc(CN)cc(C)c1-c1ncn(C)c1-c1cncn1C, the dTM [4] was -1.35 K.
With CC[C@@H]1[C@H](F)C(=O)N[C@@H]1COc1nccc2cc(C(N)=O)c(OC)cc12 [ZIMLOVISERTIB] the % of inhibition [5] was 0.1%.
Work on C=CC(=O)Nc1cc(-n2c(=O)ccc3cnc4ccc(-c5ccc(NS(C)(=O)=O)cc5)cc4c32)ccc1C yielded a % of control ([6]; at 1 µM) of 100% and a % of control ([6]; at 10 µM) of 100%.
Work on O[C@H]1CC[C@H](Nc2ncc3nc(Nc4c(F)cc(F)cc4F)n([C@H]4CCOC4)c3n2)CC1 yielded a % of control [7] of 100%.
In the case of Cc1cc([C@@H](C)Nc2ccccc2C(=O)O)c2nc(N3CCOCC3)cc(=O)n2c1 [AZD-6482], the % of control [8] is reported as 100%.
Cc1ccc(-c2ccc3c(ccc4sc5c(c43)NC[C@@H](C)NC5=O)n2)cn1 gave a % of inhibition [9] of 77%.
Work on CN(C)CCOc1ccc(-c2nc(-c3ccncc3)c(-c3ccc4c(c3)CC/C4=N\O)[nH]2)cc1 yielded a % of control [10] of 0.6%.
